From the NIST ThermoML archive (doi:10.1016/j.jct.2016.02.016)

Experiments:
[1] = 101.33 kPa, Liquid; for speed of sound: Sing-around technique in a fixed-path interferometer; for mass density: Vibrating tube method
[2] = refractive index (Na D-line) (dimensionless); settings: 101.33 kPa, Liquid, Standard Abbe refractometry
[3] = refractive index (Na D-line) (dimensionless); xn = mol fraction of the nth substance listed; settings: 100 kPa, Liquid, Standard Abbe refractometry
[4] = xn = mol fraction of the nth substance listed; settings: 100 kPa, Liquid; for speed of sound: Frequency=3 MHz, Sing-around technique in a fixed-path interferometer; for mass density: Vibrating tube method

CCCCCC(C)=O [2-heptanone]
Settings | mass density, 293.15 K [kg/m3] | mass density, 298.15 K [kg/m3] | mass density, 303.15 K [kg/m3] | refractive index, 298.15 K | speed of sound, 293.15 K [m/s] | speed of sound, 298.15 K [m/s] | speed of sound, 303.15 K [m/s]
[1] | 815.39 | 811.08 | 806.81 | – | 1282.1 | 1262.7 | 1244.4
[2] | – | – | – | 1.40688 | – | – | –

CCCCCC(C)=O [2-heptanone] + CN(C)C=O
298.15 K
Settings | mass density, [4] [kg/m3] | refractive index, [3] | speed of sound, [4] [m/s]
x2 = 0 | 811.08 | 1.40688 | 1262.7
x2 = 0.053 | 815.095 | 1.40756 | 1268.2
x2 = 0.0936 | 818.298 | 1.40811 | 1272.9
x2 = 0.1502 | 822.964 | 1.4089 | 1279
x2 = 0.2011 | 827.389 | 1.40962 | 1285.3
x2 = 0.2495 | 831.808 | 1.41034 | 1291.3
x2 = 0.296 | 836.272 | 1.41107 | 1297.5
x2 = 0.3419 | 840.896 | 1.41182 | 1304
x2 = 0.3963 | 846.646 | 1.41276 | 1312.2
x2 = 0.4324 | 850.691 | 1.41341 | 1318
x2 = 0.4957 | 858.13 | 1.41462 | 1328.7
x2 = 0.5537 | – | 1.41582 | –
x2 = 0.5985 | 871.481 | 1.41679 | 1348.2
x2 = 0.6368 | 876.894 | 1.41766 | 1356.2
x2 = 0.6999 | 886.398 | 1.41919 | 1370.3
x2 = 0.7433 | 893.368 | 1.42032 | 1380.8
x2 = 0.8482 | 911.958 | 1.42329 | 1408.7
x2 = 0.8634 | 914.867 | 1.42376 | 1413.1
x2 = 0.8985 | 921.855 | 1.42488 | 1423.7
x2 = 0.948 | 932.305 | 1.42651 | 1439.5

CC(C)=O [acetone]
Settings | mass density, 293.15 K [kg/m3] | mass density, 298.15 K [kg/m3] | mass density, 303.15 K [kg/m3] | refractive index, 293.15 K | refractive index, 298.15 K | speed of sound, 293.15 K [m/s] | speed of sound, 298.15 K [m/s] | speed of sound, 303.15 K [m/s]
[1] | 790.19 | 784.43 | 778.63 | – | – | 1183.6 | 1163.6 | 1139.9
[2] | – | – | – | 1.35845 | 1.35386 | – | – | –

CCC(C)=O [butanone]
Settings | mass density, 293.15 K [kg/m3] | mass density, 298.15 K [kg/m3] | mass density, 303.15 K [kg/m3] | refractive index, 293.15 K | refractive index, 298.15 K | refractive index, 303.15 K | speed of sound, 293.15 K [m/s] | speed of sound, 298.15 K [m/s] | speed of sound, 303.15 K [m/s]
[1] | 805.06 | 799.78 | 794.55 | – | – | – | 1212.6 | 1191.5 | 1172
[2] | – | – | – | 1.37872 | 1.37605 | 1.37351 | – | – | –

CN(C)C=O [dimethylformamide]
Settings | mass density, 293.15 K [kg/m3] | mass density, 298.15 K [kg/m3] | mass density, 303.15 K [kg/m3] | refractive index, 293.15 K | refractive index, 298.15 K | refractive index, 303.15 K | speed of sound, 293.15 K [m/s] | speed of sound, 298.15 K [m/s] | speed of sound, 303.15 K [m/s]
[1] | 948.82 | 944.06 | 939.28 | – | – | – | 1476.7 | 1458.6 | 1438.8
[2] | – | – | – | 1.43055 | 1.4284 | 1.4261 | – | – | –

CN(C)C=O [dimethylformamide] + CC(C)=O
x1 = 1
Settings | mass density, 293.15 K [kg/m3] | mass density, 298.15 K [kg/m3] | mass density, 303.15 K [kg/m3] | refractive index, 293.15 K | refractive index, 298.15 K | speed of sound, 293.15 K [m/s] | speed of sound, 298.15 K [m/s] | speed of sound, 303.15 K [m/s]
[3] | – | – | – | 1.43055 | 1.4284 | – | – | –
[4] | 948.82 | 944.06 | 939.28 | – | – | 1476.7 | 1458.6 | 1438.8

CN(C)C=O [dimethylformamide] + CCC(C)=O
x1 = 1
Settings | mass density, 293.15 K [kg/m3] | mass density, 298.15 K [kg/m3] | mass density, 303.15 K [kg/m3] | refractive index, 293.15 K | refractive index, 298.15 K | refractive index, 303.15 K | speed of sound, 293.15 K [m/s] | speed of sound, 298.15 K [m/s] | speed of sound, 303.15 K [m/s]
[3] | – | – | – | 1.43055 | 1.4284 | 1.4261 | – | – | –
[4] | 948.82 | 944.06 | 939.28 | – | – | – | 1476.7 | 1458.6 | 1438.8

CN(C)C=O [dimethylformamide] + CCCC(C)=O
x1 = 1
Settings | mass density, 293.15 K [kg/m3] | mass density, 298.15 K [kg/m3] | mass density, 303.15 K [kg/m3] | refractive index, 293.15 K | refractive index, 298.15 K | refractive index, 303.15 K | speed of sound, 293.15 K [m/s] | speed of sound, 298.15 K [m/s] | speed of sound, 303.15 K [m/s]
[3] | – | – | – | 1.43055 | 1.4284 | 1.4261 | – | – | –
[4] | 948.82 | 944.06 | 939.28 | – | – | – | 1476.7 | 1458.6 | 1438.8

CN(C)C=O [dimethylformamide] + CCCCCC(C)=O
298.15 K, x1 = 1
Settings | mass density [kg/m3] | refractive index | speed of sound [m/s]
[3] | – | 1.4284 | –
[4] | 944.06 | – | 1458.6

CCCC(C)=O [pentan-2-one]
Settings | mass density, 293.15 K [kg/m3] | mass density, 298.15 K [kg/m3] | mass density, 303.15 K [kg/m3] | refractive index, 293.15 K | refractive index, 298.15 K | refractive index, 303.15 K | speed of sound, 293.15 K [m/s] | speed of sound, 298.15 K [m/s] | speed of sound, 303.15 K [m/s]
[1] | 806.83 | 801.99 | 796.73 | – | – | – | 1232.4 | 1211.9 | 1191.7
[2] | – | – | – | 1.39026 | 1.38793 | 1.38523 | – | – | –
